Test results published in ChEMBL document CHEMBL1129855, “Molecular connectivity to find -blockers with low toxicity” (Bioorg Med Chem Lett, 1997).

Tests used:
Details in all cases: mouse, in vivo
[1] = The activity was measured in mice after oral administration of the compound; type: ADME
[2] = Compound was tested for its toxicity after oral administration in mice
[3] = Compound was tested for its toxicity after intravenous administration to mice
[4] = Compound was tested for its toxicity after oral administration to mice in experiment 1
[5] = Compound was tested for its toxicity after oral administration to mice in experiment 2
[6] = Compound was tested for its toxicity after intravenous administration to mice in experiment 1
[7] = Compound was tested for its toxicity after intravenous administration to mice in experiment 2
[8] = Compound was tested for its toxicity after intravenous administration in mice

SMILES | LD50 [4] | LD50 [5] | LD50 [6] | LD50 [7] | other results
CC1=C(/C=C/C(C)=C/C=C/C(C)=C/C=C/C=C(C)/C=C/C=C(C)/C=C/C2=C(C)CCCC2(C)C)C(C)(C)CCC1 [BETA CAROTENE] | – | – | – | – | LD50 [1]: 6750 mg/kg; LD50 [2]: 26 mg/kg
CC(C)(Sc1cc(C(C)(C)C)c(O)c(C(C)(C)C)c1)Sc1cc(C(C)(C)C)c(O)c(C(C)(C)C)c1 [PROBUCOL] | > 5000 mg/kg | – | – | – | LD50 [3]: 25 mg/kg
COCCc1ccc(OCC(O)CNC(C)C)cc1 (stereo unspecified) [METOPROLOL] | 2090 mg/kg | 3060 mg/kg | 118 mg/kg | 292 mg/kg | –
CC(=O)Oc1c(C)cc(OCC(O)CNC(C)C)c(C)c1C (stereo unspecified) [METIPRANOLOL] | – | – | 31 mg/kg | 38.8 mg/kg | –
CC(C)NCC(O)COc1ccc(CCOCC2CC2)cc1 (stereo unspecified) [BETAXOLOL] | 944 mg/kg | 625 mg/kg | 37 mg/kg | 38 mg/kg | –
CC(C)(C)NCC(O)COc1ccccc1C#N (stereo unspecified) [BUNITROLOL] | 1350 mg/kg | 998 mg/kg | – | – | –
CC(=O)c1cc2cccc(OCC(O)CNC(C)C)c2o1 (stereo unspecified) [BEFUNOLOL] | – | – | 102 mg/kg | 75.1 mg/kg | –
CC(C)NCC(O)COc1cccc2c1C=CC2 (stereo unspecified) [INDENOLOL] | – | – | 26 mg/kg | 32.4 mg/kg | –
CCN(CC)C(=O)Nc1ccc(OCC(O)CNC(C)(C)C)c(C(C)=O)c1 (stereo unspecified) [CELIPROLOL] | 1830 mg/kg | 1770 mg/kg | 56.2 mg/kg | 42.8 mg/kg | –
CC(C)(C)NCC(O)COc1ccccc1OCC1CCCO1 (stereo unspecified) [BUFETOLOL] | 409 mg/kg | 238 mg/kg | – | – | –
CC(C)(C)NCC(O)COc1cccc2c1CCCC2=O (single isomer, unassigned) [LEVOBUNOLOL] | 700 mg/kg | 798 mg/kg | 25 mg/kg | 37.7 mg/kg | –
CCc1cccc2cc(C(O)CNC(C)(C)C)oc12 (stereo unspecified) [BUFURALOL] | 117 mg/kg | 273 mg/kg | 29.7 mg/kg | 25.9 mg/kg | –
CCC(C)NCC(O)c1ccc2c(c1)CCCC2 (stereo unspecified) [BUTIDRINE] | 235 mg/kg | 212 mg/kg | 20.2 mg/kg | 24.6 mg/kg | –
CC(C)NCC(O)c1ccc2ccccc2c1 (stereo unspecified) [PRONETALOL] | 512 mg/kg | 486 mg/kg | 46 mg/kg | 38 mg/kg | –
CC(C)(C)NCC(O)COc1cccc2c1C[C@H](O)[C@H](O)C2 (stereo partly specified) [NADOLOL] | 4500 mg/kg | 2710 mg/kg | – | – | –
Cc1ccc(OCC(O)CNC(C)(C)C)c2oc(=O)ccc12 (stereo unspecified) [BUCUMOLOL] | 676 mg/kg | 828 mg/kg | 33.1 mg/kg | 46.8 mg/kg | –
CC(C)(C)NC[C@H](O)COc1nsnc1N1CCOCC1 [TIMOLOL] | 1190 mg/kg | 1460 mg/kg | – | – | –
N/C(CC(O)COc1cccc2ccccc12)=N/O (stereo unspecified) [NADOXOLOL] | 1000 mg/kg | 710 mg/kg | 180 mg/kg | 119 mg/kg | –
O=C(O)C1CCc2cc(C3CCCCC3)c(Cl)cc21 (stereo unspecified) | 41 mg/kg | 252 mg/kg | – | – | LD50 [8]: 34 mg/kg
CC(C)NCC(O)c1ccc(NS(C)(=O)=O)cc1 (stereo unspecified) [SOTALOL] | 2600 mg/kg | 2630 mg/kg | – | – | –
CC(CCc1ccccc1)NCC(O)c1ccc(O)c(C(N)=O)c1 (stereo unspecified) [LABETALOL] | 1450 mg/kg | 1370 mg/kg | 47 mg/kg | 51.1 mg/kg | –
CC(C)(C)NCC(O)COc1ccc(NC(=O)NC2CCCCC2)cc1 (stereo unspecified) [TALINOLOL] | 593 mg/kg | 1050 mg/kg | 25 mg/kg | 25.8 mg/kg | –
CC(C)(C)NCC(O)COc1cccc2c1SCCC2 (stereo unspecified) [TERTATOLOL] | – | – | 37 mg/kg | 34.1 mg/kg | –
CC(C)(C)NCC(O)COc1cccc2c1CCC(=O)N2 (stereo unspecified) [CARTEOLOL] | 810 mg/kg | 656 mg/kg | – | 39.4 mg/kg | –
CC(C)(C)NCC(O)CSc1nc(-c2ccc(C(N)=O)s2)cs1 (stereo unspecified) [AROTINOLOL] | – | – | – | 57.8 mg/kg | –
C=CCc1ccccc1OCC(O)CNC(C)C (stereo unspecified) [ALPRENOLOL] | 278 mg/kg | 415 mg/kg | – | – | –
CCCC(=O)Nc1ccc(OCC(O)CNC(C)C)c(C(C)=O)c1 (stereo unspecified) [ACEBUTOLOL] | – | – | 76 mg/kg | 82.2 mg/kg | –
CCCCCC(O)C1C(=O)OC(C)C(O)/C=C/C=C/C=C/C=C/C=C(\C)C(O)CC(O)CC(O)CC(O)CC(O)CC(O)CC1O (stereo unspecified) | – | – | – | – | LD50 [8]: 5 mg/kg; LD50 [2]: 18 mg/kg
Cc1cc2c(OCC(CNC(C)(C)C)OC(=O)c3ccccc3)cccc2[nH]1 (stereo unspecified) [BOPINDOLOL] | – | – | 17 mg/kg | 15.9 mg/kg | –
